We go through two molecules from US4999199A, “Pharmaceutical formulations: liposomes incorporating aromatic polyene antibiotics” (priority 1988, dated 1991).

The subject of one data set is various fungi. The data set is described as follows: In vitro susceptibility experiments, candicidin compared with amphotericin B. It counts as cell-based. The settings on record: experiments in various laboratories including those of the present inventors.
In data set [1] the test system is human red blood cells (RBC). Description: In vitro toxicity toward red blood cells (hemoglobin release, hemolysis). The settings on record: at 75 Mg/ml (so in the source); 20% human RBC, 45 minutes at 37° C.; hypotonic water = 100% lysis. The method, then:
The samples were incubated for 45 minutes at 37° C., centrifuged at 10,000 xg for 20 minutes, and the hemoglobin content of the supernatant determined by its light absorbance. The release of hemoglobin by a hypotonic water solution was also measured and was considered to represent 100% lysis.

For data set [2] the following is noted: cited from earlier work.
A further data set has as its system humans. As to conditions: given orally to humans; cited from earlier work.
For data set [3] the following is noted: conventional formulations, parenteral; cited from earlier work.

For candicidin, the “antifungal activity compared with amphotericin B” value in the data set on various fungi was “much higher antifungal activity than amphotericin B”. This molecule also returned an RBC hemolysis in data set [1] of 75%. The water solubility entry in data set [2] is on record as “totally water insoluble”. In addition, the “toxicity on oral administration” value with humans is recorded as “without any toxicity”.
As for `C[C@@H]1[C@H](O)[C@@H](C)/C=C/C=C/C=C/C=C/C=C/C=C/C=C/[C@H](O[C@@H]2O[C@H](C)[C@@H](O)[C@H](N)[C@@H]2O)C[C@@H]2O[C@](O)(C[C@@H](O)C[C@@H](O)[C@H](O)CC[C@@H](O)C[C@@H](O)CC(=O)O[C@H]1C)C[C@H](O)[C@H]2C(=O)O` [amphotericin B], the “persons given amphotericin B who develop decreased renal function and abnormal urine sediment” value in data set [3] is “over 80%”.
